From patent US9066905B2, “Synthetic peptides and methods of use for autoimmune disease therapies” (President and Fellows of Harvard College, priority 1998, dated 2015)
Where two headings read alike, the source gives them in different places. Residues, ends and D or L forms follow the SMILES beside them.

Experiments:
[1] = target: HLA-DR4 (DRB1*0401) molecules (Homo sapiens, UniProt P01903+P01911, A100K/A169T/F76Y/I96L/K127E/L162R/M171V/N62H/P40V/Q125Y/R42H/S133A/S149N/S66Y/V115G/V209L/W38E); test: Competitive binding assay with recombinant water-soluble HLA-DR4
[2] = target: HLA-DR1 (DRB1*0101) molecules (Homo sapiens, UniProt P01903+P01911, A100R/D57E/F55L/F60I/F76Y/I96L/L162R/M171V/P40L/Q125E/R42F/V115G/Y59C); test: Competitive binding assay with recombinant water-soluble HLA-DR1
[3] = Affinity for HLA-DR4 (DRB1*0401) molecules determined by competition with biotinylated competitor HA 306-318, biotinylated competitor HA306-318
[4] = biotinylated competitor YEAK, read-out: Affinity for HLA-DR4 (DRB1*0401) molecules determined by competition with biotinylated competitor YEAK
[5] = Affinity for HLA-DR1 (DRB1*0101) molecules determined by competition with biotinylated competitor HA 306-318, biotinylated competitor HA306-318
[6] = biotinylated competitor YEAK, read-out: Affinity for HLA-DR1 (DRB1*0101) molecules determined by competition with biotinylated competitor YEAK

| Compound | IC50 [1, 3] | IC50 [1, 4] | IC50 [2, 5] | IC50 [2, 6] |
| --- | --- | --- | --- | --- |
| CC(C)C[C@H](NC(=O)[C@H](CCCCN)NC(=O)[C@H](CC(C)C)NC(=O)[C@@H](NC(=O)[C@H](CC(N)=O)NC(=O)[C@H](CCC(N)=O)NC(=O)[C@H](CCCCN)NC(=O)[C@@H](NC(=O)[C@H](Cc1ccc(O)cc1)NC(=O)[C@H](CCCCN)NC(=O)[C@@H]1CCCN1C(=O)[C@H](C)N)C(C)C)[C@@H](C)O)C(=O)N[C@@H](C)C(=O)N[C@H](C(=O)N[C@@H](C)C(=O)O)[C@@H](C)O [compound 4] | 26 µM | 8.2 µM | 13 µM | 3.3 µM |
| C[C@H](N)C(=O)N[C@@H](C)C(=O)N[C@@H](C)C(=O)N[C@@H](Cc1ccc(O)cc1)C(=O)N[C@@H](C)C(=O)N[C@@H](C)C(=O)N[C@@H](C)C(=O)N[C@@H](C)C(=O)N[C@@H](C)C(=O)N[C@@H](C)C(=O)N[C@@H](CCCCN)C(=O)N[C@@H](C)C(=O)N[C@@H](C)C(=O)N[C@@H](C)C(=O)N[C@@H](C)C(=O)O [compound 5] (H-AAAYAAAAAAKAAAA-OH) | 7 µM |  |  |  |
| C[C@H](N)C(=O)N[C@@H](CCCCN)C(=O)N[C@@H](CCC(=O)O)C(=O)N[C@@H](Cc1ccc(O)cc1)C(=O)N[C@@H](C)C(=O)N[C@@H](C)C(=O)N[C@@H](C)C(=O)N[C@@H](C)C(=O)N[C@@H](C)C(=O)N[C@@H](C)C(=O)N[C@@H](CCCCN)C(=O)N[C@@H](C)C(=O)N[C@@H](C)C(=O)N[C@@H](C)C(=O)N[C@@H](C)C(=O)O [compound 7] (H-AKEYAAAAAAKAAAA-OH) | 4.5 µM |  | 19 µM |  |
| C[C@H](N)C(=O)N[C@@H](CCC(=O)O)C(=O)N[C@@H](CCC(=O)O)C(=O)N[C@@H](Cc1ccc(O)cc1)C(=O)N[C@@H](C)C(=O)N[C@@H](C)C(=O)N[C@@H](C)C(=O)N[C@@H](C)C(=O)N[C@@H](C)C(=O)N[C@@H](C)C(=O)N[C@@H](CCCCN)C(=O)N[C@@H](C)C(=O)N[C@@H](C)C(=O)N[C@@H](C)C(=O)N[C@@H](C)C(=O)O [compound 11] | 2 µM |  |  |  |
| C[C@H](N)C(=O)N[C@@H](C)C(=O)N[C@@H](CCC(=O)O)C(=O)N[C@@H](Cc1ccc(O)cc1)C(=O)N[C@@H](C)C(=O)N[C@@H](C)C(=O)N[C@@H](C)C(=O)N[C@@H](C)C(=O)N[C@@H](C)C(=O)N[C@@H](C)C(=O)N[C@@H](CCCCN)C(=O)N[C@@H](C)C(=O)N[C@@H](C)C(=O)N[C@@H](C)C(=O)N[C@@H](C)C(=O)O [compound 12] | 3.2 µM |  | 47 µM |  |
| C[C@H](NC(=O)[C@H](C)NC(=O)[C@H](C)NC(=O)[C@H](C)NC(=O)[C@H](CCCCN)NC(=O)[C@H](C)NC(=O)[C@H](C)NC(=O)[C@H](C)NC(=O)[C@H](C)NC(=O)[C@H](C)NC(=O)[C@H](C)NC(=O)[C@H](Cc1ccc(O)cc1)NC(=O)[C@H](C)NC(=O)[C@H](CCCCN)NC(=O)[C@@H](N)CCC(=O)O)C(=O)O [compound 13] (H-EKAYAAAAAAKAAAA-OH) | 3.3 µM |  |  |  |
| C[C@H](N)C(=O)N[C@@H](C)C(=O)N[C@@H](CCCCN)C(=O)N[C@@H](Cc1ccc(O)cc1)C(=O)N[C@@H](CCC(=O)O)C(=O)N[C@@H](C)C(=O)N[C@@H](C)C(=O)N[C@@H](C)C(=O)N[C@@H](C)C(=O)N[C@@H](C)C(=O)N[C@@H](CCCCN)C(=O)N[C@@H](C)C(=O)N[C@@H](C)C(=O)N[C@@H](C)C(=O)N[C@@H](C)C(=O)O [compound 14] (H-AAKYEAAAAAKAAAA-OH) | 4 µM |  |  |  |
| C[C@H](N)C(=O)N[C@@H](C)C(=O)N[C@@H](CCCCN)C(=O)N[C@@H](Cc1ccc(O)cc1)C(=O)N[C@@H](C)C(=O)N[C@@H](CCC(=O)O)C(=O)N[C@@H](C)C(=O)N[C@@H](C)C(=O)N[C@@H](C)C(=O)N[C@@H](C)C(=O)N[C@@H](CCCCN)C(=O)N[C@@H](C)C(=O)N[C@@H](C)C(=O)N[C@@H](C)C(=O)N[C@@H](C)C(=O)O [compound 15] (H-AAKYAEAAAAKAAAA-OH) | 1.8 µM | < 1 µM | 42 µM | 16 µM |
| C[C@H](NC(=O)[C@H](C)NC(=O)[C@H](C)NC(=O)[C@H](C)NC(=O)[C@H](CCCCN)NC(=O)[C@H](C)NC(=O)[C@H](C)NC(=O)[C@H](C)NC(=O)[C@H](C)NC(=O)[C@H](C)NC(=O)[C@H](C)NC(=O)[C@H](Cc1ccc(O)cc1)NC(=O)[C@H](C)NC(=O)[C@H](C)NC(=O)[C@@H](N)CCC(=O)O)C(=O)O [compound 16] (H-EAAYAAAAAAKAAAA-OH) | 5 µM |  |  |  |
| C[C@H](NC(=O)[C@H](C)NC(=O)[C@H](C)NC(=O)[C@H](C)NC(=O)[C@H](CCCCN)NC(=O)[C@H](C)NC(=O)[C@H](C)NC(=O)[C@H](C)NC(=O)[C@H](C)NC(=O)[C@H](C)NC(=O)[C@H](C)NC(=O)[C@H](Cc1ccc(O)cc1)NC(=O)[C@H](CCCCN)NC(=O)[C@H](CCCCN)NC(=O)[C@@H](N)CCC(=O)O)C(=O)O [compound 17] (H-EKKYAAAAAAKAAAA-OH) | 1.8 µM |  |  |  |
| C[C@H](NC(=O)[C@H](C)NC(=O)[C@H](C)NC(=O)[C@H](C)NC(=O)[C@H](CCCCN)NC(=O)[C@H](C)NC(=O)[C@H](C)NC(=O)[C@H](C)NC(=O)[C@H](C)NC(=O)[C@H](C)NC(=O)[C@H](C)NC(=O)[C@H](Cc1ccc(O)cc1)NC(=O)[C@H](CCCCN)NC(=O)[C@H](C)NC(=O)[C@@H](N)CCC(=O)O)C(=O)O [compound 18] (H-EAKYAAAAAAKAAAA-OH) | 4.4 µM | 3 µM | 33 µM |  |
| C[C@H](N)C(=O)N[C@@H](CCCCN)C(=O)N[C@@H](CCCCN)C(=O)N[C@@H](Cc1ccc(O)cc1)C(=O)N[C@@H](CCC(=O)O)C(=O)N[C@@H](C)C(=O)N[C@@H](C)C(=O)N[C@@H](C)C(=O)N[C@@H](C)C(=O)N[C@@H](C)C(=O)N[C@@H](C)C(=O)N[C@@H](C)C(=O)N[C@@H](C)C(=O)N[C@@H](C)C(=O)N[C@@H](C)C(=O)O [compound 21] | 2.2 µM |  |  |  |
| C[C@H](N)C(=O)N[C@@H](C)C(=O)N[C@@H](CCC(=O)O)C(=O)N[C@@H](Cc1ccc(O)cc1)C(=O)N[C@@H](CCCCN)C(=O)N[C@@H](C)C(=O)N[C@@H](C)C(=O)N[C@@H](C)C(=O)N[C@@H](C)C(=O)N[C@@H](C)C(=O)N[C@@H](C)C(=O)N[C@@H](C)C(=O)N[C@@H](C)C(=O)N[C@@H](C)C(=O)N[C@@H](C)C(=O)O [compound 26] | 1.8 µM |  |  |  |
| C[C@H](N)C(=O)N[C@@H](CCC(=O)O)C(=O)N[C@@H](Cc1ccc(O)cc1)C(=O)N[C@@H](C)C(=O)N[C@@H](CCCCN)C(=O)N[C@@H](C)C(=O)N[C@@H](C)C(=O)N[C@@H](C)C(=O)N[C@@H](C)C(=O)N[C@@H](C)C(=O)N[C@@H](C)C(=O)N[C@@H](C)C(=O)N[C@@H](C)C(=O)N[C@@H](C)C(=O)N[C@@H](C)C(=O)O [compound 32] | 3 µM |  |  |  |
| C[C@H](N)C(=O)N[C@@H](CCC(=O)O)C(=O)N[C@@H](CCCCN)C(=O)N[C@@H](C)C(=O)N[C@@H](Cc1ccc(O)cc1)C(=O)N[C@@H](C)C(=O)N[C@@H](C)C(=O)N[C@@H](C)C(=O)N[C@@H](C)C(=O)N[C@@H](C)C(=O)N[C@@H](C)C(=O)N[C@@H](C)C(=O)N[C@@H](C)C(=O)N[C@@H](C)C(=O)N[C@@H](C)C(=O)O [compound 33] | < 1 µM |  |  |  |
| C[C@H](N)C(=O)N[C@@H](Cc1ccc(O)cc1)C(=O)N[C@@H](CCCCN)C(=O)N[C@@H](C)C(=O)N[C@@H](CCC(=O)O)C(=O)N[C@@H](C)C(=O)N[C@@H](C)C(=O)N[C@@H](C)C(=O)N[C@@H](C)C(=O)N[C@@H](C)C(=O)N[C@@H](C)C(=O)N[C@@H](C)C(=O)N[C@@H](C)C(=O)N[C@@H](C)C(=O)N[C@@H](C)C(=O)O [compound 35] | 1.3 µM |  |  |  |
| C[C@H](N)C(=O)N[C@@H](CCCCN)C(=O)N[C@@H](Cc1ccc(O)cc1)C(=O)N[C@@H](C)C(=O)N[C@@H](CCC(=O)O)C(=O)N[C@@H](C)C(=O)N[C@@H](C)C(=O)N[C@@H](C)C(=O)N[C@@H](C)C(=O)N[C@@H](C)C(=O)N[C@@H](C)C(=O)N[C@@H](C)C(=O)N[C@@H](C)C(=O)N[C@@H](C)C(=O)N[C@@H](C)C(=O)O [compound 36] | 3 µM |  |  |  |
